Assay results from PMC8379256, “A xanthene derivative, DS20060511, attenuates glucose intolerance by inducing skeletal muscle-specific GLUT4 translocation in mice” (Communications Biology, 2021).
Values joined by “and” are separate entries in the source; they are usually repeats but may differ in a detail not shown here. Equal entries are not always repeated.

Test system: L6-GLUT4myc myotubes
Test: GLUT4 translocation: cell surface GLUT4myc by anti-Myc antibody assay in L6-GLUT4myc myotubes
Type: cell-based, rat
Parameters: key to GLUT4 translocation: fold of vehicle-treated group
Procedure: The L6-GLUT4myc rat myoblast cell line was obtained from Dr. Amira Klip and Dr. Philip Bilan, through a license granted by The Hospital for Sick Children, 555 University Avenue, Toronto, Ontario, Canada M5G 1 × 8; or purchased from Kerafast, Boston, MA (ESK202)[43]. The 3T3-L1-GLUT4myc fibroblast cell line was provided by Dr. Tomoyuki Yuasa, Tokushima University[44]. L6-GLUT4myc myoblasts were grown in MEMα (32571036, Thermo Fisher Scientific, Waltham, MA) supplemented with 10% FBS and 1% antibiotics, and then induced to differentiate into myotubes in MEMα supplemented with 2% FBS and 1% antibiotics for 5–8 days. 3T3-L1-GLUT4myc fibroblasts were induced to differentiate into adipocytes as described previously,[45] with minor modifications. Briefly, cells were grown to confluence in growth medium: DMEM (10569010, Thermo Fisher Scientific) supplemented with 10% FBS and 1% antibiotics, and then induced to differentiate into adipocytes in growth medium supplemented with 1 μM dexamethasone, 2 μM rosiglitazone, 0.5 mM isobutylmethylxanthine, and 10 μg mL^−1 insulin for 2 days. The adipocytes were then cultured in growth medium supplemented with 10 μg mL^−1 insulin for a few days before being used for the experiments.
Cell surface GLUT4 levels in the L6-GLUT4myc myoblasts and myotubes were determined by antibody binding assay as described previously[43],[44], with minor modifications. Briefly, cells in a 96- or 24-well plate were starved in serum-free MEMα (0.1% BSA and 1% antibiotics) for 3 h and then treated with the indicated concentrations of DS20060511 and/or insulin for 30 min at 37 °C. After fixation with 4% paraformaldehyde, the cells were incubated with 1% glycine in PBS at 4 °C for 10 min, and blocked with 10% normal goat serum and 3% BSA in PBS at 4 °C for 30 min. The cells were then incubated with anti-c-Myc antibody (sc-40, 1:500) diluted with blocking buffer at 4 °C for 1 h, washed with cold PBS(+), incubated with HRP-conjugated anti-mouse IgG diluted with blocking buffer at 4 °C for 30 min, and then washed again. SuperSignal ELISA Pico Chemiluminescent Substrate (Thermo Fisher Scientific) was added and the luminescent signal was measured. To investigate GLUT4 translocation in the 3T3-L1-GLUT4myc adipocytes, the cells were prepared in a 24-well plate, and anti-c-Myc antibody (sc-789, 1:1000), HRP-conjugated anti-rabbit IgG and SIGMAFAST OPD regent (Sigma–Aldrich) were added for optical detection of the cell surface GLUT4myc levels. The GLUT4 translocation activity was normalized to that in the vehicle-treated group.

C/C1=C/C(=O)O[C@@H]2C[C@@H](CC[C@H](C)/C=C\CC1)O[C@@](O)([C@@H]1CSC(=O)N1)C2 [Latrunculin B, reference compound]
effect on GLUT4 translocation induced by insulin (100 nM insulin, Latrunculin B 10-200 nM, Fig. 4d): suppressed GLUT4 translocation induced by insulin | effect on GLUT4 translocation induced by DS20060511 (30 μM DS20060511, Latrunculin B 10-200 nM, Fig. 4d): not that induced by DS20060511 treatment | GLUT4 translocation (Control (no insulin or DS20060511), Latrunculin B 10 nM): 1.16 and 0.86 and 0.98 | GLUT4 translocation (Control, Latrunculin B 30 nM): 0.98 and 1.11 and 0.90 | GLUT4 translocation (Control, Latrunculin B 100 nM): 1.11 and 0.92 and 0.97 | GLUT4 translocation (Control, Latrunculin B 200 nM): 1.06 and 1.00 and 0.94
